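Here, GI50 denotes the concentration required for 50% inhibition of growth. TGI marks complete inhibition of growth.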
Tests used:
Assay in all cases: NCI tumour cell line growth inhibition, 384-well format
[1] = system: HS 578T breast
[2] = system: NCI-H522 lung
[3] = system: HT29 colon
[4] = system: CAKI-1 renal
[5] = system: MOLT-4 leukemia
[6] = system: SNB-19 CNS
[7] = system: A549 NSCLC
[8] = system: A498 renal
[9] = system: HL-60(TB) leukemia
[10] = system: HCT-116 colon
[11] = system: M14 melanoma
[12] = system: COLO 205 colon
[13] = system: MDA-MB-435 melanoma
[14] = system: BT-549 breast
[15] = system: SR leukemia
[16] = system: EKVX NSCLC
[17] = system: SK-MEL-2 melanoma
[18] = system: UACC-62 melanoma
[19] = system: K-562 leukemia
[20] = system: TK-10 renal
[21] = system: PC-3 prostate
[22] = system: MALME-3M melanoma
[23] = system: SK-MEL-28 melanoma
[24] = system: UACC-257 melanoma
[25] = system: HCT-15 colon
[26] = system: NCI-H460 NSCLC
[27] = system: HOP-92 NSCLC
[28] = system: HOP-62 NSCLC
[29] = system: MCF7 breast
[30] = system: OVCAR-8 ovarian
[31] = system: IGROV1 ovarian
[32] = system: SK-OV-3 ovarian
[33] = system: MDA-MB-231 breast
[34] = system: SF-539 CNS
[35] = system: NCI-H322M lung
[36] = system: SF-295 CNS
[37] = system: SK-MEL-5 melanoma
[38] = system: NCI-H226 lung
[39] = system: OVCAR-3 ovarian
[40] = system: SNB-75 CNS
[41] = system: MDA-MB-468 breast
[42] = system: U251 glioblastoma
[43] = system: KM12 colon
[44] = system: ACHN renal
[45] = system: UO-31 renal
[46] = system: SF-268 CNS
[47] = system: T-47D breast
[48] = system: DU-145 prostate
[49] = system: SW-620 colon
[50] = system: OVCAR-5 ovarian
[51] = system: SN12C renal
[52] = system: OVCAR-4 ovarian
[53] = system: NCI-H23 lung
[54] = system: 786-0 renal

For `C[C@]12CC[C@@H]3c4ccc(O)cc4C[C@@H](CCCCCCCCCS(=O)CCCC(F)(F)C(F)(F)F)[C@H]3[C@@H]1CC[C@@H]2O` (some centres not stated), the GI50 [1] was > 100 µM, the TGI [1] was > 100 µM and the GI50 [2] was > 100 µM. The TGI [2] was > 100 µM, the GI50 [3] was 49.9 µM and the TGI [3] was > 100 µM. For the same molecule, the GI50 [4] was > 100 µM, the TGI [4] was > 100 µM and the GI50 [5] was 8.42 µM. The TGI [5] was > 100 µM, the GI50 [6] was > 100 µM and the TGI [6] was > 100 µM. The GI50 [7] was > 100 µM, the TGI [7] was > 100 µM and the GI50 [8] was > 100 µM. The TGI [8] was > 100 µM, the GI50 [9] was > 100 µM and the TGI [9] was > 100 µM. For the same molecule, the GI50 [10] was > 100 µM, the TGI [10] was > 100 µM and the GI50 [11] was > 100 µM. The TGI [11] was > 100 µM, the GI50 [12] was 77.1 µM and the TGI [12] was > 100 µM. For the same molecule, the GI50 [13] was > 100 µM, the TGI [13] was > 100 µM and the GI50 [14] was > 100 µM. The TGI [14] was > 100 µM, the GI50 [15] was > 100 µM and the TGI [15] was > 100 µM. For the same molecule, the GI50 [16] was > 100 µM, the TGI [16] was > 100 µM and the GI50 [17] was > 100 µM. The TGI [17] was > 100 µM, the GI50 [18] was > 100 µM and the TGI [18] was > 100 µM. For the same molecule, the GI50 [19] was 7.51 µM, the TGI [19] was > 100 µM and the GI50 [20] was > 100 µM. For the same molecule, the TGI [20] was > 100 µM, the GI50 [21] was > 100 µM and the TGI [21] was > 100 µM. For the same molecule, the GI50 [22] was > 100 µM, the TGI [22] was > 100 µM and the GI50 [23] was > 100 µM. The TGI [23] was > 100 µM, the GI50 [24] was > 100 µM and the TGI [24] was > 100 µM. The GI50 [25] was 67.4 µM, the TGI [25] was > 100 µM and the GI50 [26] was > 100 µM. The TGI [26] was > 100 µM, the GI50 [27] was > 100 µM and the TGI [27] was > 100 µM. The GI50 [28] was > 100 µM, the TGI [28] was > 100 µM and the TGI [29] was > 100 µM. For the same molecule, the GI50 [30] was > 100 µM, the TGI [30] was > 100 µM and the GI50 [31] was > 100 µM. For the same molecule, the TGI [31] was > 100 µM, the GI50 [32] was > 100 µM and the TGI [32] was > 100 µM. The GI50 [33] was > 100 µM, the TGI [33] was > 100 µM and the GI50 [34] was > 100 µM. The TGI [34] was > 100 µM, the GI50 [35] was 76.8 µM and the TGI [35] was > 100 µM. The GI50 [36] was 9.39 µM, the TGI [36] was > 100 µM and the GI50 [37] was 27.4 µM. The TGI [37] was > 100 µM, the GI50 [38] was > 100 µM and the TGI [38] was > 100 µM. The GI50 [39] was > 100 µM, the TGI [39] was > 100 µM and the GI50 [40] was > 100 µM. For the same molecule, the TGI [40] was > 100 µM, the GI50 [41] was 2.37 µM and the TGI [41] was > 100 µM. The GI50 [42] was > 100 µM, the TGI [42] was > 100 µM and the GI50 [43] was 75.8 µM. For the same molecule, the TGI [43] was > 100 µM, the GI50 [44] was > 100 µM and the TGI [44] was > 100 µM. The GI50 [45] was > 100 µM, the TGI [45] was > 100 µM and the GI50 [46] was > 100 µM. For the same molecule, the TGI [46] was > 100 µM, the GI50 [47] was 1.93 µM and the TGI [47] was > 100 µM. The GI50 [48] was > 100 µM, the TGI [48] was > 100 µM and the GI50 [49] was > 100 µM. For the same molecule, the TGI [49] was > 100 µM, the GI50 [50] was > 100 µM and the TGI [50] was > 100 µM. The GI50 [51] was > 100 µM, the TGI [51] was > 100 µM and the GI50 [52] was > 100 µM. For the same molecule, the TGI [52] was > 100 µM, the GI50 [53] was > 100 µM and the TGI [53] was > 100 µM. The GI50 [54] was > 100 µM and the TGI [54] was > 100 µM.

— PubChem BioAssay (NCI)
